Here are results for 4 molecules from patent US7754272B2, “Local drug delivery” (Biocompatibles IK Limited, priority 1999, dated 2010).

The nature of series [1]: Loading and release from quater polymer membrane. Format: physicochemical. The note with it: caffeine from aqueous, dipyridamole from 1:1 ethanol:water solution.
Series [2] in a line: Drug loading of HEMA-PC:HEMA:MMA:MBA crosslinked membrane. The following applies: HEMA-PC:HEMA:MMA:MBA copolymer swollen in aqueous drug solution, room temperature, over night. Type of series: physicochemical. An excerpt:
The polymers including MBA were polymerised in situ to form crosslinked membranes. […] The crosslinked polymers were used to form “infinite slabs” type membranes, to simulate the coating on a stent. […] The loaded levels were established to be the following: […]

The nature of series [3]: Release from loaded membrane into water. Type of series: physicochemical. The note with it: HEMA-PC:HEMA:MMA:MBA membrane, FIG. 1.
Source text: The profile of fractional release against square root of time for release into water (using the same equipment as example 2) are set out in FIG. 1.
Series [4] in a line: Effect of polymer composition on release of dicloxacillin. The following applies: HEMA-PC:LM 1:4 with 2 mole % 3-chloro-2-hydroxypropyl methacrylate vs example 3 polymer, FIG. 2. Type of series: physicochemical. The text has this:
The membrane formed based on a 1:4 copolymer of HEMA-PC and dodecylmethacrylate (LM) with 2 mole % of reactive monomer which is 3-chloro-2-hydroxypropyl methacrylate, was compared to the polymer crosslinked by diethylenically unsaturated monomer MBA used in example 3 above, to compare release rates to dicloxacillin, a medium molecular weight model drug.

Series [5] is described as follows: Ex vivo human saphenous vein model, polymer/dipyridamole coated stents. The procedure: Palmaz-Schatz Stents (trade mark) were coated with a solution of the same polymer as used in Reference Example 1, dissolved in ethanol at 50 g/l concentration, also containing dipyridamole at 30 g/l concentration. Stents were dipped into the solution by hand, using several coating steps. The stents were then cured overnight at 70 C. in moist air.
The coated stents were tested in an ex vivo model using fresh human saphenous vein, previously washed in the same culture medium as is used in Example 16 above, in the ex vivo tests. The stents were delivered into veins, which were subsequently deposited into apparatus used in Example 16. The circulating liquid, and the vessel wall were analysed at 1, 6 or 24 hours to determine localisation of dipyridamole. […] Similarly, the level of dipyridamole remaining on the stent decreases from 1 hour to 24 hours. […] At this time, dipyridamole is concentrated in the section of the vein immediately surrounding the stent with lower levels in the vessel immediately adjacent those sections.

The conditions of series [6]: cited from earlier work.
A short description of series [7]: Etoposide/polymer premix coated stents, loading and release. Format: physicochemical. The procedure: In this example, rather than precoating the polymer according to reference Example 1, followed by loading of drug, a premix of drug and crosslinkable polymer is formed and coated onto a stent. The crosslinkable polymer is identical to that used in Reference Example 1, 0.932 g polymer being dissolved into a 1:1 ethanol:water (by volume) mixture (50 ml). […] The coated stents were cured overnight at a temperature in the range 50 to 70 C.
The amount of drug loaded into the stents was determined by elution into an ethanol:water 50:50 (volume) mixture. […] The amount of etoposide eluted into ethanol:water is in this range.
The release rate, from the results, for the stent coated with a polymer crosslinked in the presence of drug indicate that the release of drug may not be slowed down as compared to the alternative system, where precoated stents are contacted with a solution of drug.

The molecule `Cn1c(=O)c2c(ncn2C)n(C)c1=O` [Caffeine, caffeine] registered a total loading in series [1] of 28 mg/g polymer. Moreover, the “level of drug per stent” value (coated stent swollen in aqueous caffeine 10 mg/ml) is on record as “around 0.025 mg per stent”. Also, the “share of loading released in the first 60 seconds” value (first 60 seconds) is “at least 80%”. Further, the release times entry (release into aqueous medium, loaded from 10 mg/ml) is listed as “negligible”. Besides, the “loading levels or release half life versus 10 mg/ml loading” value (swelling solution 10% w/w caffeine) is reported as “No significant increase”. In addition, in series [2], the “Loading (mg/g polymer)” value amounted to 80 mg/g polymer. The release into water entry in series [3] is recorded as “substantially total release after about an hour”.
Turning to `Cc1onc(-c2c(Cl)cccc2Cl)c1C(=O)N[C@@H]1C(=O)N2[C@@H]1SC(C)(C)[C@@H]2C(=O)O` [Dicloxacillin, dicloxacillin], the “release half life, polymer having hydrophobic groups versus MBA-crosslinked polymer” value in series [4] is given as “much higher”. In series [2], the “Loading (mg/g polymer)” value is reported as 32 mg/g polymer.
Take `OCCN(CCO)c1nc(N2CCCCC2)c2nc(N(CCO)CCO)nc(N3CCCCC3)c2n1` [Dipyridamole, dipyridamole]: the total loading in series [1] was 18 mg/g polymer. Besides, the “Loading (mg/g polymer)” value in series [2] was determined as 32 mg/g polymer. Further, in series [5] (1, 6 or 24 hours), the “dipyridamole within the vessel wall” value is listed as “no dipyridamole could be seen within the vessel wall until twenty four hours after stent deployment”. The “dipyridamole in the circulating medium” value in series [5] (1 to 24 hours) is reported as “can be detected in the circulating medium after one hour”.
As to `COc1cc([C@@H]2c3cc4c(cc3[C@@H](O[C@@H]3O[C@@H]5CO[C@@H](C)O[C@H]5[C@H](O)[C@H]3O)[C@H]3COC(=O)[C@H]23)OCO4)cc(OC)c1O` [etoposide], the “solubility in water” value in series [6] is given as “only slightly soluble in water”. Besides, the “time at which release plateaued” value in series [7] (into 5 ml phosphate buffered saline) is “around 5 minutes”. Besides, the average etoposide loading entry in series [7] (premix coated stent, eluted into ethanol:water 50:50) is “around 12 μg per stent”.
